Laboratory results as given in patent US20210190799A1, “METHOD FOR DIAGNOSING LIVER DISEASES AND METHOD FOR SCREENING THERAPEUTIC AGENT FOR LIVER DISEASES USING CHANGES IN EXPRESSION OF TM4SF5 PROTEIN” (SEOUL NATIONAL UNIVERSITY R&DB FOUNDATION, priority 2017, published 2021).

What was measured:
STAT3 protein = test: Western blotting of separated liver tissue treated with laminin; type: cell-based, mouse; conditions: FIG. 26B
Protocol: Particularly, a lysis buffer [50 mM Tris-HCl (pH 7.4), 1% NP40, 0.25% sodium dioxycholate, 150 mM NaCl, 1 mM EDTA], SDS (sodium dodecyl sulfate), Na3O4V and protease inhibitor cocktail (GenDepot) were added to the obtained liver tissue, which was left at 4° C. for 15 minutes to lyse the tissue. The lysate was centrifuged for 30 minutes under the conditions of 13,000 rpm and 4° C. to obtain a supernatant. The proteins present in the supernatant were quantified using BCA reagent (Thermo Scientifics). 4× sample buffer [4 ml of 100% glycerol, 2.4 ml of Tris-HCl (pH 6.8), 0.8 g of SDS, 4 mg of brominated phenol blue, 0.4 ml of β-mercaptoethanol and 3.1 ml of H2O, final volume: 10 ml] was added thereto, which was boiled at 100° C. for 5 minutes. SDS-PAGE was performed, and the proteins were transferred to a nitrocellulose membrane (Whatman). The membrane was pretreated in a solution containing 5% skim milk for 1 hour, and reacted with the antibodies against laminin (Abcam, UK), ACC1 (Cell Signalling, USA), SREBP1 precursor (Santa cruz, USA), mature SREBP1 (Santa cruz, USA), MTP (Santa cruz, USA), PPARα (Santa cruz, USA), pY^706STAT3 (Millipore, USA), STAT3 (Santa cruz, USA), α-tubulin (Sigma, USA) and TM4SF5 (J Clin Invest. 2008 April; 118(4): 1354-66) as the primary antibodies at 4° C. for 15 hours. […]

TM4SF5 protein = test: shTM4SF5 in hepatocytes of the liver disease model mouse, Western blotting; type: cell-based; conditions: FIG. 25
From the text: First, hepatocytes were obtained from the isolated liver tissue as described above. The expressions of TM4SF5 and STAT3 proteins in the obtained hepatocytes were suppressed by transfecting the cells with shTM4SF5 or silencing STAT3 [On-Target plus SMART pool siRNA (Thermo)], and then the expression changes of laminin were confirmed by Western blotting as described above.

TM4SF5 gene = test: TM4SF5 shRNA in differentiated 3T3-L1 adipocytes (oil red O staining, real-time PCR); type: cell-based, mouse
Protocol: To confirm whether the fat production was suppressed when the expression of TM4SF5 protein was suppressed in adipocytes, oil red O staining was performed.
First, mouse 3T3-L1 adipocyte progenitor cells were prepared by culturing in DMEM supplemented with 10% NBCS (Gibco, 16010159) and 1% penicillin/streptomycin. The prepared cells were distributed in a 6-well plate at the density of 1×10^5/well.
After 4 days of the distribution, when the progenitor cells were full in the wells, the cells were further cultured for 48 hours. Then, the medium was replaced with the adipocyte differentiation medium (MDI medium containing 10% FBS) supplemented with 1 μM dexamethasone, 0.5 mM IBMX (3-Isobutyl-1-methylxanthine) and 10 μg/m ? of insulin (Sigma, USA). After culturing the cells for 2 days, the medium was replaced with DMEM supplemented with 10% FBS and 10 μg/m ? of insulin. After replacing with the medium, the cells were cultured for 10 days, and then cultured using DMEM supplemented with 10% FBS and 1% penicillin/streptomycin to obtain differentiated adipocytes. The adipocytes were transfected with TM4SF5 shRNA (shTM4SF5, 5′-[…]-3′, SEQ. ID. NO: 35) using lipofectamine 3000.
Whether the expression of the fat-related gene changed when the expression of TM4SF5 gene was suppressed was confirmed by the following method. […]

Substance	expression level of STAT3 protein (STAT3 protein)	expression of laminin protein (TM4SF5 protein)	production of fat, oil red O staining (TM4SF5 gene; FIG. 6A)	expressions of Pparγ, CD36, Fasn, Srebp1 and Fabp1 genes (TM4SF5 gene; FIG. 6B)
laminin	not changed	–	–	–
shTM4SF5: TM4SF5 shRNA, 5′-CCTGGAATGTGACGCTCTTCTCGCTGCTG-3′, SEQ. ID. NO: 35 (listed as DNA, chemistry not fully specified)	–	suppressed	inhibited	suppressed
